These results are taken from US7727550B2, “Biologically active native biomatrix composition” (The UAB Research Foundation, priority 2003, dated 2010).

Experiment [1] has as its system human umbilical vascular endothelial cells (HUVEC). The experiment can be described thus: HUVEC culture on two-dimensional biomatrix environments. It is filed as cell-based. The conditions noted are these: FGF 15 ng/ml, two-dimensional HuBiogel matrix. The method, then:
[…] The specific morphological changes in the monolayer HUVEC cultures was examined after 72 hrs incubation on each biomatrix environment. HUVECs cultured on plastic or purified collagen I grew poorly (<60% viability). […] Tubular capillary formation is confirmed by cross-sectional electron microscopy showing distinct lumen.

Experiment [2] deals with HUVEC. Kind of experiment: HUVEC migration and differentiation in three-dimensional HuBiogel disc culture system. It is filed as cell-based, human. The conditions noted are these: FGF 60 ng/ml added day 0, 5 mg/ml HuBiogel disc, 50 um pore size. The method, then:
Endothelial cells were cultured under standard conditions. On day 0, FGF (60 ng/ml) was added to the culture and incubation continued. At the indicated times, cell morphology was examined and documented. […] There is no differentiation of the cells until the day 5-day 7 time period. After day 7, obvious differentiation as indicated by sprout formation/capillary formation can be seen. […] Such a temporally discrete timing of the activation migration and differentiation steps make the use of this system ideal for studying the biochemical mechanisms involved in each step, as well as isolating potential inhibitors of the mechanisms identified. This time dependent, temporally isolated sequence of events is in contrast to that seen with Matrigel, where differentiation events occur rapidly in the absence of added growth factors and/or growth stimulants.

The test system of experiment [3] is mesenchymal stem cells (MSC). The experiment can be described thus: Mesenchymal stem cell culture on HuBiogel. It is filed as cell-based. The conditions noted are these: NGF 15 ng/ml. Here is the method:
Other cell type may also be grown on HuBiogel™ matrices, with the above being exemplary in nature only. Theses other cell types include neurons, hepatocytes, sertoli cells and the like. For Example, FIGS. 11A and B show glioma cells cultured on HuBiogel™ containing matrices. […] FIGS. 12A and B show mesenchymal stem cells (MSC) cells cultured on HuBiogel™ in the presence (FIG. 12B) and absence of 15 ng/ml NGF (FIG. 12A).

For “FGF: fibroblast growth factor, purified angiogenic factor added to HuBiogel”, the “HUVEC differentiation on HuBiogel enriched with growth factor” value in experiment [1] was “rapid formation of tubule-like structures”. Further, the “growth factor induced HUVEC activation, migration and differentiation” value in experiment [2] is “induced a time dependent series of cellular activation, migration and differentiation steps”.

As to NGF: nerve growth factor, in experiment [3], the “neuronal differentiation of MSC on HuBiogel” value was “neuronal differentiation occurred only in the presence of NGF”.
